Test results published in patent publication US10781224B2, “Bis(oxymethyl)phosphinic acid and biogenic metal salts thereof as regulators of plant growth and development” (priority 2016, dated 2020).

Assays:
Assay type in all cases: in vivo
[1] = tested on: corn (Krasnodar 385 MV variety); experiment: Corn seed treatment with BHMPA salts: germination energy and germination rate
Protocol: (§1) Control—Soaking Seeds in Water;
(§2) Experimental versions—soaking seeds in BHMPA solutions and solutions of BHMPA Ca, Mg, Na, Co, Mn, Cu, and Zn salts at 1·10^−6-1·10^−12% concentrations (doses). The studies were conducted in laboratory in Petri dishes; seed bed—two layers of filter paper. 50 seeds soaked in water (control) and in the solutions of the tested compounds (experimental) were placed into each dish. Wheat, corn, and rice seeds were exposed for one hour.
(§3) Analysis was conducted according to the government standards GOST 12038-84 “Crop seeds. Technical conditions for determining the germination energy and germination rate”, GOST 12044-93 “Crop seeds. Methods for determining disease contamination.”
(§4) Seed germination energy and rate were calculated in percent as an arithmetic mean of the four experimental results (germination energy on the 4th day, wheat germination on the 8th day, rice and corn germination—on the 7th day). Germination was determined based on the germinating power indicators (length of the roots and sprouts and their wet and dry mass per 100 shoots).
(§5) The effect of pre-sowing seed treatment with the claimed BHMPA salts of biogenic metals was studied on winter wheat (Vershin variety), corn (Krasnodar 385 MV variety), and rice (Diamant variety).

[2] = tested on: rice (Diamant variety); experiment: Rice seed treatment with BHMPA salts: germination energy and germination rate
Protocol: as §1, §2, §3, §4, §5

[3] = tested on: winter wheat (Vershin variety); experiment: Winter wheat seed treatment with BHMPA salts: germinating power (length and mass of roots and sprouts)
Protocol: as §2, §4, §5
The above data describe the seed viability only at the initial stage of germination, while the germination ability at the later stage of germination is defined by the initial germinating power. The method for the determination of the germinating power comprises measuring the height of the sprouts and primary roots, as well as the biomass and the dry mass thereof per 100 seedlings. [M. A. Kartuzova. Initial Germinating Power as Method of Biological Assessment of Seed Quality. Selection and Seed Farming, #2, 1953].

[4] = comparative study vs Melaphen, 1·10^−7% solution
[5] = rice seed treatment, solution 1 · 10^−9%
[6] = seed treatment, concentration 1 · 10^−6%
[7] = seed treatment, concentration 1 · 10^−7%
[8] = seed treatment, concentration 1 · 10^−8%
[9] = seed treatment, concentration 1 · 10^−9%
[10] = seed treatment, concentration 1 · 10^−10%
[11] = seed treatment, concentration 1 · 10^−11%
[12] = seed treatment, concentration 1 · 10^−12%
[13] = comparative study, 1·10^−10% solution

O.O.O=P([O-])(CO)CO.O=P([O-])(CO)CO.[Co+2] [Co-salt, Cobalt BHMPA Salt]
Germination energy ([1]; 1·10^−6% solution): 80.0%
Germination rate ([1]; 1·10^−6% solution): 82.2%
Germination energy ([1]; 1·10^−7% solution): 84.3%
Germination rate ([1]; 1·10^−7% solution): 90.0%
Germination rate ([1]; 1·10^−7% solution, listed as Co): 86.7%
Germination energy ([1]; 1·10^−8% solution): 82.0%
Germination rate ([1]; 1·10^−8% solution): 84.7%
Germination energy ([1]; 1·10^−9% solution): 80.7%
Germination rate ([1]; 1·10^−9% solution): 83.0%
Germination energy ([1]; 1·10^−10% solution): 79.2%
Germination rate ([1]; 1·10^−10% solution): 81.7%
Germination energy ([1]; 1·10^−11% solution): 78.0%
Germination rate ([1]; 1·10^−11% solution): 80.8%
Germination energy ([1]; 1·10^−12% solution): 76.8%
Germination rate ([1]; 1·10^−12% solution): 79.2%
Germination energy [1, 4]: 87.0%
Germination rate [1, 4]: 96.7%
Germination energy, % [2, 5]: 87.5%
Germination rate, % [2, 5]: 94.5%
Germination energy ([2]; rice, 1·10^−9% solution): 86.3%
Germination rate ([2]; rice, 1·10^−9% solution): 93.7%
Germination energy [2, 6]: 80.7%
Germination rate [2, 6]: 84.0%
Germination energy [2, 7]: 83.0%
Germination rate [2, 7]: 87.0%
Germination energy [2, 8]: 84.0%
Germination rate [2, 8]: 90.3%
Germination energy [2, 9]: 86.3%
Germination rate [2, 9]: 93.7%
Germination energy [2, 10]: 85.7%
Germination rate [2, 10]: 91.3%
Germination energy [2, 11]: 84.0%
Germination rate [2, 11]: 88.0%
Germination energy [2, 12]: 81.3%
Germination rate [2, 12]: 85.3%
Length, root ([3]; 1·10^−6% solution): 6.0 cm
Length, root, + % to control ([3]; 1·10^−6% solution): −5%
Length, sprout ([3]; 1·10^−6% solution): 5.1 cm
Length, sprout, + % to control ([3]; 1·10^−6% solution): −4%
Mass, dry, root ([3]; 1·10^−6% solution): 0.43 g/100 plantlings
Mass, dry, root, + % to control ([3]; 1·10^−6% solution): −6.5%
Mass, dry, sprout ([3]; 1·10^−6% solution): 0.41 g/100 plantlings
Mass, dry, sprout, + % to control ([3]; 1·10^−6% solution): −9%
Mass, wet, root ([3]; 1·10^−6% solution): 2.99 g/100 plantlings
Mass, wet, root, + % to control ([3]; 1·10^−6% solution): 3.5%
Mass, wet, sprout ([3]; 1·10^−6% solution): 3.30 g/100 plantlings
Mass, wet, sprout, + % to control ([3]; 1·10^−6% solution): −3.5%
Length, root ([3]; 1·10^−7% solution): 6.3 cm
Length, root, + % to control ([3]; 1·10^−7% solution): 0%
Length, sprout ([3]; 1·10^−7% solution): 5.4 cm
Length, sprout, + % to control ([3]; 1·10^−7% solution): 2%
Mass, dry, root ([3]; 1·10^−7% solution): 0.50 g/100 plantlings
Mass, dry, root, + % to control ([3]; 1·10^−7% solution): 9%
Mass, dry, sprout ([3]; 1·10^−7% solution): 0.45 g/100 plantlings
Mass, dry, sprout, + % to control ([3]; 1·10^−7% solution): 0%
Mass, wet, root ([3]; 1·10^−7% solution): 3.06 g/100 plantlings
Mass, wet, root, + % to control ([3]; 1·10^−7% solution): 6%
Mass, wet, sprout ([3]; 1·10^−7% solution): 3.47 g/100 plantlings
Mass, wet, sprout, + % to control ([3]; 1·10^−7% solution): 1.5%
Length, root ([3]; 1·10^−8% solution): 6.4 cm
Length, root, + % to control ([3]; 1·10^−8% solution): 1.6%
Length, sprout ([3]; 1·10^−8% solution): 5.5 cm
Length, sprout, + % to control ([3]; 1·10^−8% solution): 4%
Mass, dry, root ([3]; 1·10^−8% solution): 0.54 g/100 plantlings
Mass, dry, root, + % to control ([3]; 1·10^−8% solution): 17%
Mass, dry, sprout ([3]; 1·10^−8% solution): 0.53 g/100 plantlings
Mass, dry, sprout, + % to control ([3]; 1·10^−8% solution): 18%
Mass, wet, root ([3]; 1·10^−8% solution): 3.29 g/100 plantlings
Mass, wet, root, + % to control ([3]; 1·10^−8% solution): 14%
Mass, wet, sprout ([3]; 1·10^−8% solution): 3.74 g/100 plantlings
Mass, wet, sprout, + % to control ([3]; 1·10^−8% solution): 9%
Length, root ([3]; 1·10^−9% solution): 6.5 cm
Length, root, + % to control ([3]; 1·10^−9% solution): 3%
Length, sprout ([3]; 1·10^−9% solution): 5.7 cm
Length, sprout, + % to control ([3]; 1·10^−9% solution): 7.5%
Mass, dry, root ([3]; 1·10^−9% solution): 0.55 g/100 plantlings
Mass, dry, root, + % to control ([3]; 1·10^−9% solution): 19.5%
Mass, dry, sprout ([3]; 1·10^−9% solution): 0.57 g/100 plantlings
Mass, dry, sprout, + % to control ([3]; 1·10^−9% solution): 27%
Mass, wet, root ([3]; 1·10^−9% solution): 3.35 g/100 plantlings
Mass, wet, root, + % to control ([3]; 1·10^−9% solution): 16%
Mass, wet, sprout ([3]; 1·10^−9% solution): 4.04 g/100 plantlings
Mass, wet, sprout, + % to control ([3]; 1·10^−9% solution): 18%
Length, root ([3]; 1·10^−10% solution): 6.6 cm
Length, root, + % to control ([3]; 1·10^−10% solution): 5%
Length, sprout ([3]; 1·10^−10% solution): 6.1 cm
Length, sprout, + % to control ([3]; 1·10^−10% solution): 15%
Mass, dry, root ([3]; 1·10^−10% solution): 0.56 g/100 plantlings
Mass, dry, root, + % to control ([3]; 1·10^−10% solution): 22%
Mass, dry, sprout ([3]; 1·10^−10% solution): 0.67 g/100 plantlings
Mass, dry, sprout, + % to control ([3]; 1·10^−10% solution): 49%
Mass, wet, root ([3]; 1·10^−10% solution): 3.57 g/100 plantlings
Mass, wet, root, + % to control ([3]; 1·10^−10% solution): 23.5%
Mass, wet, sprout ([3]; 1·10^−10% solution): 4.18 g/100 plantlings
Mass, wet, sprout, + % to control ([3]; 1·10^−10% solution): 22%
Length, root ([3]; 1·10^−11% solution): 6.5 cm
Length, root, + % to control ([3]; 1·10^−11% solution): 3%
Length, sprout ([3]; 1·10^−11% solution): 5.9 cm
Length, sprout, + % to control ([3]; 1·10^−11% solution): 11%
Mass, dry, root ([3]; 1·10^−11% solution): 0.54 g/100 plantlings
Mass, dry, root, + % to control ([3]; 1·10^−11% solution): 17%
Mass, dry, sprout ([3]; 1·10^−11% solution): 0.56 g/100 plantlings
Mass, dry, sprout, + % to control ([3]; 1·10^−11% solution): 24%
Mass, wet, root ([3]; 1·10^−11% solution): 3.33 g/100 plantlings
Mass, wet, root, + % to control ([3]; 1·10^−11% solution): 15%
Mass, wet, sprout ([3]; 1·10^−11% solution): 3.78 g/100 plantlings
Mass, wet, sprout, + % to control ([3]; 1·10^−11% solution): 10.5%
Length, root ([3]; 1·10^−12% solution): 6.2 cm
Length, root, + % to control ([3]; 1·10^−12% solution): −1.5%
Length, sprout ([3]; 1·10^−12% solution): 5.4 cm
Length, sprout, + % to control ([3]; 1·10^−12% solution): 2%
Mass, dry, root ([3]; 1·10^−12% solution): 0.52 g/100 plantlings
Mass, dry, root, + % to control ([3]; 1·10^−12% solution): 13%
Mass, dry, sprout ([3]; 1·10^−12% solution): 0.48 g/100 plantlings
Mass, dry, sprout, + % to control ([3]; 1·10^−12% solution): 7%
Mass, wet, root ([3]; 1·10^−12% solution): 3.06 g/100 plantlings
Mass, wet, root, + % to control ([3]; 1·10^−12% solution): 6%
Mass, wet, sprout ([3]; 1·10^−12% solution): 3.49 g/100 plantlings
Mass, wet, sprout, + % to control ([3]; 1·10^−12% solution): 2%
Length, root [3, 13]: 10.4 cm
Length, root, + % to control [3, 13]: 20%
Length, sprout [3, 13]: 7.4 cm
Length, sprout, + % to control [3, 13]: 19%
Mass, dry, root [3, 13]: 0.68 g/100 plantlings
Mass, dry, root, + % to control [3, 13]: 10%
Mass, dry, sprout [3, 13]: 0.55 g/100 plantlings
Mass, dry, sprout, + % to control [3, 13]: 8%
Mass, wet, root [3, 13]: 5.97 g/100 plantlings
Mass, wet, root, + % to control [3, 13]: 65%
Mass, wet, sprout [3, 13]: 5.16 g/100 plantlings
Mass, wet, sprout, + % to control [3, 13]: 30%
